Results reported in patent publication US20220087987A1, “A METHOD FOR TREATING SWI/SNF COMPLEX-DEFICIENT CANCERS COMPRISING GLUTATHIONE (GSH) METABOLIC PATHWAY INHIBITOR” (National Cancer Center, priority 2018, published 2022).

Assays:
[1] = tested on: ARID1A-proficient and ARID1A-deficient cancer cell lines; experiment: Cell viability and colony formation in cancer cell line panel; type: cell-based, human
[2] = tested on: ARID1A-KO cells and ARID1A-deficient cancer cells; experiment: Apoptosis detection (cleaved caspase-3/7, Annexin V); type: cell-based, human
Description: The Annexin V-FITC/PI Apoptosis Detection Kit (Sigma-Aldrich) was used to detect apoptotic cells. Briefly, the cell pellet was suspended in 1× binding buffer and then incubated with Annexin V-FITC and PI in the dark for 10 min. Fluorescence was analyzed on a Guava flow cytometer (Millipore). Data were analyzed using GuavaSoft software (v. 2.7). Relative ratios of the Annexin V-positive fraction in treated samples were normalized against untreated samples.
GSH, ROS and apoptosis were detected using the GSH/GSSG-Glo Assay (Promega) and/or the GSH-Glo Assay (Promega), the ROS-Glo Assay (Promega), and the Caspase-Glo 3/7 Assay, respectively. To measure levels of GSH, ROS and apoptosis after drug treatment, cells were trypsinized, counted, reseeded at the specified density in 96-well plates and exposed to the indicated concentrations of drugs. After 16-48 hrs, luminescence was measured using an Envision Multi-label plate reader (PerkinElmer). […] Cells were trypsinized after a further 48 hrs, counted, and reseeded at the specified density in 96-well plates. After 72-120 hrs, luminescence was measured using an Envision Multi-label plate reader (PerkinElmer). Cell viability was also measured using the CellTiter-Glo Luminescent Cell Viability Assay (Promega). […] The GSH/GSSG ratio was calculated as the GSH-GSSG signal divided by the GSSG/2 signal. […]

GSH = experiment: Detection of GSH in cells (GSH/GSSG-Glo, GSH-Glo); type: cell-based, human; conditions: ARID1A-deficient versus ARID1A-proficient ovarian and other cancer cells
ROS = experiment: Detection of ROS in cells (ROS-Glo); type: cell-based, human; conditions: ARID1A-deficient versus ARID1A-proficient ovarian and other cancer cells
Description: GSH, ROS and apoptosis were detected using the GSH/GSSG-Glo Assay (Promega) and/or the GSH-Glo Assay (Promega), the ROS-Glo Assay (Promega), and the Caspase-Glo 3/7 Assay, respectively. To measure levels of GSH, ROS and apoptosis after drug treatment, cells were trypsinized, counted, reseeded at the specified density in 96-well plates and exposed to the indicated concentrations of drugs. After 16-48 hrs, luminescence was measured using an Envision Multi-label plate reader (PerkinElmer). To measure levels of GSH and ROS after siRNA-mediated knockdown, cell lines were transfected with siRNAs (25 nM) using Lipofectamine RNAiMAX. After 48 hrs, cells were trypsinized and transfected repeatedly with siRNAs (25 nM) using Lipofectamine RNAiMAX. Cells were trypsinized after a further 48 hrs, counted, and reseeded at the specified density in 96-well plates. After 72-120 hrs, luminescence was measured using an Envision Multi-label plate reader (PerkinElmer). Cell viability was also measured using the CellTiter-Glo Luminescent Cell Viability Assay (Promega). Caspase-3/7, GSH, and ROS levels were normalized against cell viability. The GSH/GSSG ratio was calculated as the GSH-GSSG signal divided by the GSSG/2 signal. Relative signal ratios in treated samples were normalized against untreated samples.

ovarian PDCs = experiment: Cell viability of ovarian patient-derived cancer cells; type: cell-based, human; conditions: 33 μM APR-246 or 100 μM BSO for 6 days
Description: Tumor samples and ascites were obtained from four ovarian cancer patients who underwent surgery or cell-free and concentrated ascites reinfusion therapy at the National Cancer Center Hospital or Kaname-cho Hospital (Tokyo, Japan) and were cultured in vitro. This protocol was approved by the Institutional Review Board of the National Cancer Center (Tokyo, Japan), and informed consent was obtained from the patients. To establish CCCO219 and CCC1216 PDCs, patient ascites (24 ml) were diluted in two volumes of PBS containing 2 mM EDTA, layered over 15 ml Ficoll-Paque PLUS (GE Healthcare), and centrifuged at 2200 rpm for 30 min. The interphase mononuclear layer was transferred to a fresh conical tube and washed twice with PBS containing 2 mM EDTA. […]
Cell viability was examined by measuring the cellular ATP level using the CellTiter-Glo Luminescent Cell Viability Assay (Promega). […] Cells were trypsinized after a further 48 hrs, counted, and reseeded at the specified density in 96-well plates. To measure cell viability after drug treatment, cells were trypsinized, counted, reseeded at the specified density in 96-well plates, and exposed to the indicated concentrations of drugs. Cell viability was measured using the CellTiter-Glo Luminescent Cell Viability Assay. Luminescence was measured using an Envision Multi-label plate reader (PerkinElmer).

[3] = tested on: ARID1A-deficient TOV21G OCCC xenografts; experiment: Mouse xenograft model, TOV21G; type: in vivo, mice; conditions: APR-246 50 mg/kg
Description: All mouse experiments were approved by the National Cancer Center (NCC) animal Ethical Committee. Cells were counted and re-suspended in a 1:1 mixture of 100 μl culture medium and 100 μl Matrigel (BD Biosciences) on ice. […] In the subcutaneous model, once the tumors were palpable (about 3-14 days after implantation), mice were randomly divided into two groups. […] In the doxycycline (Dox) treatment study, TOV21G-shNT cells and TOV21G-shGCLC cells were injected into the flanks of 6-week-old female BALB/c-nu/nu mice. […] In other experiments, TOV21G-shNT cells and TOV21G-shGCLC cells were treated with Dox (0.5 μg/ml) for 4 days and then injected into the flank of 6-week-old female BALB/c-nu/nu mice. […] Tumor growth was measured every several days using calipers. The volume of implanted tumors was calculated using the formula V=L×W2/2, where V is volume (mm^3), L is the largest diameter (mm), and W is the smallest diameter (mm). At the end of the experiment, mice were sacrificed in accordance with standard protocols.
GSH was detected using the GSH-Glo Assay (Promega). Tumor samples derived from xenografts were weighed and washed with PBS. The tumor samples were mixed with 50 μl of PBS and homogenized using a Mini Cordless Grinder (Funakoshi). PBS (950 μl) was added to homogenized tumor samples and centrifuged at 4° C. for 10 min at 15,000 rpm. Tumor extract and 2×GSH-Glo Reagent (25 μl of each) were mixed in white 96-well plates (Greiner) and incubated for 30 min at room temperature. Luciferin Detection Reagent (50 μl) was added and the samples were incubated for 15 min at room temperature. Luminescence was measured using an Envision Multi-label plate reader (PerkinElmer). GSH signal intensities per 1 mg of tumor sample were calculated.
Formalin-fixed, paraffin-embedded ovarian cancer clinical specimens and TOV21G xenografts were deparaffinized and representative whole 4-μm-thick sections were analyzed by IHC. […] The samples were removed from the freezer and equilibrated at −20° C. for approximately 15 minutes before sectioning. Tissue sections (6 μm thick) were placed on positively charged slides, dried, and fixed for 15 minutes at room temperature in 3% formaldehyde, followed by 5 minutes in methanol at −20° C. After fixation, representative sections were analyzed by IHC. […] All IHC staining was performed using a Dako autostainer Link48 (Dako).
First, membrane staining intensity (0, 1+, 2+, or 3+) was determined for each cell in a fixed field. The H-score was assigned using the following formula: [1×(% cells 1+)+2×(% cells 2+)+3×(% cells 3+)]. The final score, ranging from 0 to 300, gives more relative weight to higher-intensity membrane staining in a given tumor sample. The percentage of NOXA-, cleaved caspase-3-, cleaved PARP- and Ki67-positive cells (of the total number of cells) in each slide were counted.

[4] = tested on: diffuse-type gastric cancer PDCs; experiment: Cell viability of diffuse-type gastric cancer PDCs; type: cell-based, human; conditions: treatment for 6 days
[5] = tested on: uterine cancer cell lines; experiment: Cell viability of uterine cancer cell lines; type: cell-based, human; conditions: treatment for 6 days
Description: (§1) Cell viability was examined by measuring the cellular ATP level using the CellTiter-Glo Luminescent Cell Viability Assay (Promega). To measure cell viability after siRNA-mediated knockdown, cell lines were transfected with siRNAs (25 nM) using Lipofectamine RNAiMAX. After 48 hrs, cells were trypsinized and repeatedly transfected with siRNAs (25 nM) using Lipofectamine RNAiMAX. Cells were trypsinized after a further 48 hrs, counted, and reseeded at the specified density in 96-well plates. To measure cell viability after drug treatment, cells were trypsinized, counted, reseeded at the specified density in 96-well plates, and exposed to the indicated concentrations of drugs. Cell viability was measured using the CellTiter-Glo Luminescent Cell Viability Assay. Luminescence was measured using an Envision Multi-label plate reader (PerkinElmer).

[6] = tested on: bile duct cancer cell lines; experiment: Cell viability of bile duct cancer cell lines; type: cell-based, human; conditions: treatment for 6 days
Description: as §1

[7] = tested on: SWI/SNF complexes (SMARCA2, SMARCA4, SMARCB1, PBRM1) deficient cancer cells; experiment: Cell viability of SWI/SNF complex-deficient cancer cell lines; type: cell-based, human; conditions: treatment for 6 days
Description: as §1

SMILES: CCCCS(=N)(=O)CCC(N)C(=O)O (stereo not shown) [BSO, buthionine sulfoximine]
- sensitivity of ARID1A-deficient TOV21G versus ARID1A-proficient RMG-I ovarian cancer cells ([1]; cell viability after 3 days): more sensitive than ARID1A-proficient RMG-I ovarian cancer cells
- sensitivity of ARID1A-deficient versus ARID1A-proficient cancer cells ([1]; four ARID1A-proficient and six ARID1A-deficient cell lines, cell viability, colony formation): selectively sensitive to BSO
- apoptosis (caspase activation, Annexin V) [2]: increased apoptosis
- GSH level in cancer cell lines (GSH): decreased the GSH level
- ROS level in cancer cell lines (ROS): increased ROS levels
- sensitivity of ARID1A-deficient versus ARID1A-positive PDCs (ovarian PDCs): more sensitive
- tumor weight ([3]; BSO 750 mg/kg): reduced tumor weight
- body weight of mice ([3]; BSO 750 mg/kg once a day): without loss of body weight
- growth of xenografts (tumor volume) ([3]; intraperitoneally once daily 12-14 days, BSO 750 mg/kg): markedly suppressed xenograft growth
- sensitivity to BSO (relative AUC for cell viability) [4]: sensitized ARID1A-deficient PDCs more efficiently than ARID1A-proficient PDCs
- sensitivity to BSO of uterine cancer cell lines [5]: sensitized ARID1A-deficient cell lines more efficiently than ARID1A-proficient cell lines
- sensitivity to BSO of bile duct cancer cell lines [6]: sensitized ARID1A-deficient cell lines more efficiently than ARID1A-proficient cell lines
- sensitivity to BSO (relative AUC for cell viability) [7]: sensitized these SWI/SNF complexes deficient cell lines more efficiently than these SWI/SNF complexes proficient cell lines
